Experimental data reported in PubChem BioAssay AID1963826 (Molecular Pharmacology Branch, DTP, NCI, 2024).

Tested on: 926638-142-R-J1-PDC complex spheroid viability
Assay: Anticancer human tumor 926638-142-R-J1-PDC patient-derived endometrial carcinoma cell line growth inhibition [POLQ]
Settings: for IC50: curve of first compound; for viability, T/C: stronger effect = lower value
How it was run: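 Complex spheroid viability model combining PDC tumour cells with endothelial (HUVEC) and MSC stromal cells. Novobiocin, ART-558 or RP6685 were tested singly and in combination with standard and investigational anticancer drugs. Each was titrated in half-log steps from near clinical Cmax, or from 10 microM where Cmax was unknown.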

[1] = second compound 0.0316 µM, first compound 0.00316 µM
[2] = second compound 0.0316 µM, first compound 0.01 µM
[3] = second compound 0.0316 µM, first compound 0.0316 µM
[4] = second compound 0.0316 µM, first compound 0.1 µM
[5] = second compound 0.0316 µM, first compound 0.316 µM
[6] = second compound 0.0316 µM, first compound 1 µM
[7] = second compound 0.1 µM, first compound 0.00316 µM
[8] = second compound 0.1 µM, first compound 0.01 µM
[9] = second compound 0.1 µM, first compound 0.0316 µM
[10] = second compound 0.1 µM, first compound 0.1 µM
[11] = second compound 0.1 µM, first compound 0.316 µM
[12] = second compound 0.1 µM, first compound 1 µM
[13] = second compound 0.316 µM, first compound 0.00316 µM
[14] = second compound 0.316 µM, first compound 0.01 µM
[15] = second compound 0.316 µM, first compound 0.0316 µM
[16] = second compound 0.316 µM, first compound 0.1 µM
[17] = second compound 0.316 µM, first compound 0.316 µM
[18] = second compound 0.316 µM, first compound 1 µM
[19] = second compound 1 µM, first compound 0.00316 µM
[20] = second compound 1 µM, first compound 0.01 µM
[21] = second compound 1 µM, first compound 0.0316 µM
[22] = second compound 1 µM, first compound 0.1 µM
[23] = second compound 1 µM, first compound 0.316 µM
[24] = second compound 1 µM, first compound 1 µM
[25] = second compound 3.16 µM, first compound 0.00316 µM
[26] = second compound 3.16 µM, first compound 0.01 µM
[27] = second compound 3.16 µM, first compound 0.0316 µM
[28] = second compound 3.16 µM, first compound 0.1 µM
[29] = second compound 3.16 µM, first compound 0.316 µM
[30] = second compound 3.16 µM, first compound 1 µM
[31] = second compound 10 µM, first compound 0.00316 µM
[32] = second compound 10 µM, first compound 0.01 µM
[33] = second compound 10 µM, first compound 0.0316 µM
[34] = second compound 10 µM, first compound 0.1 µM
[35] = second compound 10 µM, first compound 0.316 µM
[36] = second compound 10 µM, first compound 1 µM
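Further: spheroids exposed to drugs for one week before readout.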
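Wherever viability, T/C is given: percent viability relative to DMSO vehicle control wells set as 100%.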

C=CCn1c(=O)c2cnc(Nc3ccc(N4CCN(C)CC4)cc3)nc2n1-c1cccc(C(C)(C)O)n1 + Nc1ccc(C#CCN(C(=O)Cc2ncc(C(F)(F)F)cc2C(F)(F)F)c2ccc(F)cc2)nn1
IC50 (second compound 0.0316 µM): 584 nM
IC50 (second compound 0.1 µM): 626 nM
IC50 (second compound 0.316 µM): 670 nM
IC50 (second compound 1 µM): 457 nM
IC50 (second compound 3.16 µM): 618 nM
IC50 (second compound 10 µM): 263 nM
viability, T/C [1]: 100%
viability, T/C [2]: 97.9%
viability, T/C [3]: 80.7%
viability, T/C [4]: 63%
viability, T/C [5]: 57.5%
viability, T/C [6]: 44.9%
viability, T/C [7]: 122%
viability, T/C [8]: 90.6%
viability, T/C [9]: 92.3%
viability, T/C [10]: 81.3%
viability, T/C [11]: 56.1%
viability, T/C [12]: 43.3%
viability, T/C [13]: 109%
viability, T/C [14]: 95.7%
viability, T/C [15]: 95%
viability, T/C [16]: 80.5%
viability, T/C [17]: 64.6%
viability, T/C [18]: 42%
viability, T/C [19]: 116%
viability, T/C [20]: 94.4%
viability, T/C [21]: 80.5%
viability, T/C [22]: 72.7%
viability, T/C [23]: 57.1%
viability, T/C [24]: 37.6%
viability, T/C [25]: 103%
viability, T/C [26]: 88.9%
viability, T/C [27]: 80%
viability, T/C [28]: 84.4%
viability, T/C [29]: 60.2%
viability, T/C [30]: 40.6%
viability, T/C [31]: 76.5%
viability, T/C [32]: 95.2%
viability, T/C [33]: 88.9%
viability, T/C [34]: 67.3%
viability, T/C [35]: 49.1%
viability, T/C [36]: 42.6%

CCCS(=O)(=O)Nc1ccc(F)c(C(=O)c2c[nH]c3ncc(-c4ccc(Cl)cc4)cc23)c1F + Nc1ccc(C#CCN(C(=O)Cc2ncc(C(F)(F)F)cc2C(F)(F)F)c2ccc(F)cc2)nn1
IC50 (second compound 0.0316 µM): 7880 nM
IC50 (second compound 0.1 µM): > 10000 nM
IC50 (second compound 0.316 µM): 8900 nM
IC50 (second compound 1 µM): 8580 nM
IC50 (second compound 3.16 µM): 8430 nM
IC50 (second compound 10 µM): 6870 nM
viability, T/C [3]: 99.5%
viability, T/C [4]: 90.5%
viability, T/C [5]: 103%
viability, T/C [6]: 85.7%
viability, T/C (second compound 0.0316 µM, first compound 3.16 µM): 80%
viability, T/C (second compound 0.0316 µM, first compound 10 µM): 42.2%
viability, T/C [9]: 111%
viability, T/C [10]: 85.7%
viability, T/C [11]: 103%
viability, T/C [12]: 81.8%
viability, T/C (second compound 0.1 µM, first compound 3.16 µM): 94.5%
viability, T/C (second compound 0.1 µM, first compound 10 µM): 50.9%
viability, T/C [15]: 90.4%
viability, T/C [16]: 97.9%
viability, T/C [17]: 100%
viability, T/C [18]: 99.9%
viability, T/C (second compound 0.316 µM, first compound 3.16 µM): 87.1%
viability, T/C (second compound 0.316 µM, first compound 10 µM): 45.3%
viability, T/C [21]: 105%
viability, T/C [22]: 92.1%
viability, T/C [23]: 93.3%
viability, T/C [24]: 92.8%
viability, T/C (second compound 1 µM, first compound 3.16 µM): 80.4%
viability, T/C (second compound 1 µM, first compound 10 µM): 44.8%
viability, T/C [27]: 89.8%
viability, T/C [28]: 83.6%
viability, T/C [29]: 90.5%
viability, T/C [30]: 87.8%
viability, T/C (second compound 3.16 µM, first compound 3.16 µM): 88.6%
viability, T/C (second compound 3.16 µM, first compound 10 µM): 43.4%
viability, T/C [33]: 87.9%
viability, T/C [34]: 93.5%
viability, T/C [35]: 91.3%
viability, T/C [36]: 82.6%
viability, T/C (second compound 10 µM, first compound 3.16 µM): 71.2%
viability, T/C (second compound 10 µM, first compound 10 µM): 40.1%

CCc1c2c(nc3ccc(O)cc13)-c1cc3c(c(=O)n1C2)COC(=O)[C@]3(O)CC + Nc1ccc(C#CCN(C(=O)Cc2ncc(C(F)(F)F)cc2C(F)(F)F)c2ccc(F)cc2)nn1
IC50 (second compound 0.0316 µM): 8.14 nM
IC50 (second compound 0.1 µM): 10.3 nM
IC50 (second compound 0.316 µM): 13.7 nM
IC50 (second compound 1 µM): 11.6 nM
IC50 (second compound 3.16 µM): 7.09 nM
IC50 (second compound 10 µM): 8.56 nM
viability, T/C [1]: 54.4%
viability, T/C [2]: 52.5%
viability, T/C [3]: 32.8%
viability, T/C [4]: 27.6%
viability, T/C [5]: 15.2%
viability, T/C [6]: 11.2%
viability, T/C [7]: 67.3%
viability, T/C [8]: 49.8%
viability, T/C [9]: 36.5%
viability, T/C [10]: 24.9%
viability, T/C [11]: 17.3%
viability, T/C [12]: 10.2%
viability, T/C [13]: 69.9%
viability, T/C [14]: 56.9%
viability, T/C [15]: 33.7%
viability, T/C [16]: 24.6%
viability, T/C [17]: 14.9%
viability, T/C [18]: 10.4%
viability, T/C [19]: 60%
viability, T/C [20]: 53.9%
viability, T/C [21]: 35.4%
viability, T/C [22]: 24.6%
viability, T/C [23]: 15.4%
viability, T/C [24]: 10.5%
viability, T/C [25]: 60.3%
viability, T/C [26]: 46.7%
viability, T/C [27]: 30.6%
viability, T/C [28]: 20.6%
viability, T/C [29]: 17.6%
viability, T/C [30]: 7.92%
viability, T/C [31]: 64.2%
viability, T/C [32]: 47.4%
viability, T/C [33]: 34.5%
viability, T/C [34]: 23.1%
viability, T/C [35]: 15.3%
viability, T/C [36]: 10.2%

COc1cccc(OCCCN)c1-c1cc(Nc2cnc(C#N)cn2)n[nH]1 + Nc1ccc(C#CCN(C(=O)Cc2ncc(C(F)(F)F)cc2C(F)(F)F)c2ccc(F)cc2)nn1
IC50 (second compound 0.0316 µM): 70.7 nM
IC50 (second compound 0.1 µM): 112 nM
IC50 (second compound 0.316 µM): 94.9 nM
IC50 (second compound 1 µM): 77.6 nM
IC50 (second compound 3.16 µM): 40.6 nM
IC50 (second compound 10 µM): 65.4 nM
viability, T/C [1]: 115%
viability, T/C [2]: 76.4%
viability, T/C [3]: 56%
viability, T/C [4]: 47.3%
viability, T/C [5]: 49.3%
viability, T/C [6]: 32.3%
viability, T/C [7]: 115%
viability, T/C [8]: 84.6%
viability, T/C [9]: 62.7%
viability, T/C [10]: 50.7%
viability, T/C [11]: 48.4%
viability, T/C [12]: 31.3%
viability, T/C [13]: 111%
viability, T/C [14]: 79.2%
viability, T/C [15]: 60.4%
viability, T/C [16]: 48.3%
viability, T/C [17]: 48.2%
viability, T/C [18]: 36.7%
viability, T/C [19]: 121%
viability, T/C [20]: 78.5%
viability, T/C [21]: 60.6%
viability, T/C [22]: 45.9%
viability, T/C [23]: 48.5%
viability, T/C [24]: 31.6%
viability, T/C [25]: 89.5%
viability, T/C [26]: 73.4%
viability, T/C [27]: 49.5%
viability, T/C [28]: 43.4%
viability, T/C [29]: 45.2%
viability, T/C [30]: 31.7%
viability, T/C [31]: 86.6%
viability, T/C [32]: 71.7%
viability, T/C [33]: 50.2%
viability, T/C [34]: 44.2%
viability, T/C [35]: 51.3%
viability, T/C [36]: 27.1%
